ChEMBL document CHEMBL1201862, “PubChem BioAssay data set” (2004)
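Five concentrations, 48 hours, 96-well plates. GI50 is the concentration that inhibits growth by half.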 Active and inactive are the calls of the source. Cut-off read from the data, not from the text of the source: active = GI50 up to about 1.1 µM and inactive = higher.

Tests used:
Assay in all cases: inhibition of tumour cell growth, NCI panel, 48 h
[1] = system: BT-549
[2] = system: OVCAR-3
[3] = system: DU-145
[4] = system: HCT-15
[5] = system: ACHN
[6] = system: MCF7
[7] = system: IGROV-1
[8] = system: T47D
[9] = system: UO-31
[10] = system: UACC-62
[11] = system: SF-268
[12] = system: A498
[13] = system: CAKI-1
[14] = system: MOLT-4
[15] = system: OVCAR-4
[16] = system: SN12C
[17] = system: MDA-MB-435
[18] = system: LOX IMVI
[19] = system: HT-29
[20] = system: PC-3
[21] = system: UACC-257
[22] = system: CCRF-CEM
[23] = system: NCI-H460
[24] = system: SW-620
[25] = system: MDA-N
[26] = system: MDA-MB-231
[27] = system: SK-MEL-28
[28] = system: COLO 205
[29] = system: SK-OV-3
[30] = system: HCT-116
[31] = system: NCI-H23
[32] = system: U-251
[33] = system: SNB-19
[34] = system: 786-0
[35] = system: K562
[36] = system: RXF 393
[37] = system: M14
[38] = system: TK-10
[39] = system: HOP-92
[40] = system: HL-60
[41] = system: KM12
[42] = system: NCI-H226
[43] = system: SF-295
[44] = system: A549
[45] = system: RPMI-8226
[46] = system: NCI/ADR-RES
[47] = system: OVCAR-5
[48] = system: HOP-62
[49] = system: SK-MEL-5
[50] = system: NCI-H522
[51] = system: SNB-75
[52] = system: EKVX
[53] = system: OVCAR-8
[54] = system: SK-MEL-2
[55] = system: Malme-3M
[56] = system: HCC 2998
[57] = system: Hs-578T
[58] = system: SR
[59] = system: SF-539

## N#CC12C(=O)N3C(=NC(c4ccccc4)NC3c3ccccc3)C1(C#N)C(c1ccccc1)NC1=C2CCCC1 (configuration not stated)
[1]
  GI50: > 100 µM (inactive)
[2]
  GI50: > 100 µM (inactive)
[3]
  GI50: > 100 µM (inactive)
[4]
  GI50: > 100 µM
[5]
  GI50: > 100 µM (inactive)
[6]
  GI50: > 100 µM (inactive)
[7]
  GI50: > 100 µM (inactive)
[8]
  GI50: > 100 µM (inactive)
[9]
  GI50: > 100 µM (inactive)
[10]
  GI50: > 100 µM (inactive)
[11]
  GI50: > 100 µM (inactive)
[12]
  GI50: > 100 µM (inactive)
[13]
  GI50: > 100 µM (inactive)
[14]
  GI50: > 100 µM (inactive)
[15]
  GI50: > 100 µM (inactive)
[16]
  GI50: > 100 µM (inactive)
[17]
  GI50: > 100 µM (inactive)
[18]
  GI50: > 100 µM (inactive)
[19]
  GI50: > 100 µM (inactive)
[20]
  GI50: > 100 µM (inactive)
[21]
  GI50: > 100 µM (inactive)
[22]
  GI50: 30.3 µM (inactive)
[23]
  GI50: > 100 µM (inactive)
[24]
  GI50: > 100 µM (inactive)
[25]
  GI50: > 100 µM (inactive)
[26]
  GI50: > 100 µM (inactive)
[27]
  GI50: > 100 µM (inactive)
[28]
  GI50: > 100 µM (inactive)
[29]
  GI50: > 100 µM (inactive)
[30]
  GI50: > 100 µM (inactive)
[31]
  GI50: > 100 µM (inactive)
[32]
  GI50: > 100 µM (inactive)
[33]
  GI50: > 100 µM (inactive)
[34]
  GI50: > 100 µM (inactive)
[35]
  GI50: > 100 µM (inactive)
[36]
  GI50: > 100 µM (inactive)
[37]
  GI50: > 100 µM (inactive)
[38]
  GI50: > 100 µM (inactive)
[39]
  GI50: > 100 µM (inactive)
[40]
  GI50: > 100000 nM (inactive)
[41]
  GI50: > 100 µM (inactive)
[42]
  GI50: > 100 µM (inactive)
[43]
  GI50: > 100 µM (inactive)
[44]
  GI50: > 100 µM (inactive)
[45]
  GI50: > 100 µM (inactive)
[46]
  GI50: > 100 µM (inactive)
[47]
  GI50: > 100 µM (inactive)
[48]
  GI50: > 100 µM (inactive)
[49]
  GI50: > 100 µM (inactive)
[50]
  GI50: > 100 µM (inactive)
[51]
  GI50: > 100 µM (inactive)
[52]
  GI50: > 100 µM (inactive)
[53]
  GI50: > 100 µM (inactive)
[54]
  GI50: > 100 µM (inactive)
[55]
  GI50: > 100 µM (inactive)
[56]
  GI50: > 100 µM (inactive)
[57]
  GI50: > 100 µM (inactive)

## Cc1cnc2[nH]c(-c3ccccc3)cc(=O)c2c1
[1]
  GI50: 0.0306 µM (active)
[2]
  GI50: 0.0123 µM (active)
[3]
  GI50: 0.0395 µM (active)
[4]
  GI50: 0.0212 µM
[5]
  GI50: 0.0608 µM (active)
[6]
  GI50: 0.164 µM (active)
[7]
  GI50: 0.0817 µM (active)
[8]
  GI50: > 100 µM (inactive)
[9]
  GI50: 0.0528 µM (active)
[10]
  GI50: < 0.0132 µM (active)
[11]
  GI50: 0.0697 µM (active)
[13]
  GI50: < 0.0186 µM (active)
[14]
  GI50: 0.0252 µM (active)
[15]
  GI50: 1.35 µM (inactive)
[16]
  GI50: 0.0527 µM (active)
[17]
  GI50: < 0.01 µM (active)
[18]
  GI50: 0.0351 µM (active)
[19]
  GI50: 0.0101 µM (active)
[20]
  GI50: 0.0161 µM (active)
[21]
  GI50: < 0.0218 µM (active)
[22]
  GI50: 0.0159 µM (active)
[23]
  GI50: 0.0259 µM (active)
[24]
  GI50: < 0.01 µM (active)
[25]
  GI50: < 0.01 µM (active)
[26]
  GI50: 0.217 µM (active)
[27]
  GI50: 0.0363 µM (active)
[28]
  GI50: 0.0193 µM (active)
[29]
  GI50: 0.0284 µM (active)
[30]
  GI50: < 0.0155 µM (active)
[31]
  GI50: 0.0741 µM (active)
[32]
  GI50: 0.0188 µM (active)
[33]
  GI50: 0.0904 µM (active)
[58]
  GI50: < 10 nM (active)
[34]
  GI50: 0.043 µM (active)
[35]
  GI50: < 0.01 µM (active)
[36]
  GI50: 0.0154 µM (active)
[37]
  GI50: 0.0213 µM (active)
[38]
  GI50: 0.151 µM (active)
[39]
  GI50: 0.065 µM (active)
[59]
  GI50: 0.0246 µM (active)
[40]
  GI50: < 10 nM (active)
[41]
  GI50: 0.0138 µM (active)
[42]
  GI50: 0.122 µM (active)
[43]
  GI50: 0.0545 µM (active)
[44]
  GI50: 0.0585 µM (active)
[45]
  GI50: 0.0219 µM (active)
[46]
  GI50: 0.012 µM (active)
[47]
  GI50: 3.07 µM (inactive)
[48]
  GI50: 1.21 µM (inactive)
[49]
  GI50: < 0.01 µM (active)
[50]
  GI50: < 0.0118 µM (active)
[51]
  GI50: 0.0122 µM (active)
[52]
  GI50: 0.716 µM (active)
[53]
  GI50: 0.04 µM (active)
[54]
  GI50: 0.0391 µM (active)
[55]
  GI50: 0.017 µM (active)
[56]
  GI50: 0.0372 µM (active)
[57]
  GI50: 0.0171 µM (active)

## CC(C)(C)C1(O)C=C(O)C(=O)N1NC(=O)c1ccccc1Nc1ccccc1 (configuration not stated)
[1]
  GI50: 28 µM (inactive)
[2]
  GI50: 6.84 µM (inactive)
[3]
  GI50: > 100 µM (inactive)
[4]
  GI50: 22.9 µM
[5]
  GI50: 47.5 µM (inactive)
[6]
  GI50: 33.3 µM (inactive)
[7]
  GI50: 66.7 µM (inactive)
[8]
  GI50: 36.1 µM (inactive)
[9]
  GI50: > 100 µM (inactive)
[10]
  GI50: 24.8 µM (inactive)
[11]
  GI50: 24.7 µM (inactive)
[12]
  GI50: 32.1 µM (inactive)
[13]
  GI50: > 100 µM (inactive)
[14]
  GI50: 2.4 µM (inactive)
[15]
  GI50: 32.9 µM (inactive)
[16]
  GI50: 60.5 µM (inactive)
[17]
  GI50: 40.6 µM (inactive)
[18]
  GI50: 17.5 µM (inactive)
[19]
  GI50: 41.1 µM (inactive)
[20]
  GI50: 40 µM (inactive)
[21]
  GI50: 24.2 µM (inactive)
[22]
  GI50: 8.43 µM (inactive)
[23]
  GI50: 34.4 µM (inactive)
[24]
  GI50: 34 µM (inactive)
[25]
  GI50: 62.2 µM (inactive)
[26]
  GI50: 42 µM (inactive)
[27]
  GI50: 50.2 µM (inactive)
[28]
  GI50: 29 µM (inactive)
[29]
  GI50: 25.4 µM (inactive)
[30]
  GI50: 38.6 µM (inactive)
[31]
  GI50: 41 µM (inactive)
[32]
  GI50: 18.2 µM (inactive)
[33]
  GI50: 54.8 µM (inactive)
[34]
  GI50: 56.9 µM (inactive)
[35]
  GI50: 20.2 µM (inactive)
[36]
  GI50: 60.5 µM (inactive)
[37]
  GI50: 76.4 µM (inactive)
[38]
  GI50: 46.3 µM (inactive)
[39]
  GI50: 38.7 µM (inactive)
[59]
  GI50: 41.4 µM (inactive)
[40]
  GI50: 847 nM (active)
[41]
  GI50: 40.9 µM (inactive)
[42]
  GI50: 48.2 µM (inactive)
[43]
  GI50: 25.2 µM (inactive)
[44]
  GI50: > 100 µM (inactive)
[45]
  GI50: 54.2 µM (inactive)
[46]
  GI50: 27.7 µM (inactive)
[47]
  GI50: 84.5 µM (inactive)
[49]
  GI50: 35.4 µM (inactive)
[50]
  GI50: 16.6 µM (inactive)
[51]
  GI50: 61.4 µM (inactive)
[52]
  GI50: 53.6 µM (inactive)
[53]
  GI50: 37.9 µM (inactive)
[54]
  GI50: 24.7 µM (inactive)
[55]
  GI50: 32.7 µM (inactive)
[56]
  GI50: 19.2 µM (inactive)
[57]
  GI50: 87.1 µM (inactive)
